# Laboratory results published in patent US9012431B2, “Boron-containing small molecules as anti-inflammatory agents” (Anacor Pharmaceuticals, Inc., priority 2008, dated 2015).
# Read-outs that look alike come from different tables or passages of the source.
# Key:
# [1] = target: T1, PDE1A3 (Homo sapiens, UniProt P54750); experiment: PDE1 inhibition; format: biochemical; settings: standard: 8-methoxymethyl-IBMX
# T1 construct: made in house; host or cells: baculoviral expression system
# [2] = target: T2, PDE7A1 (Homo sapiens, UniProt Q13946); experiment: PDE7 inhibition; format: biochemical; settings: standard: BRL-50481; read-out: IC50 PDE7A1
# T2 construct: made in house; host or cells: baculoviral expression system
# [3] = test system: CD-1 (Crl.) derived male mice; experiment: Phorbol Ester Induced Mouse Ear Edema Model; format: in vivo; settings: topical, 6 h; for inhibition in vivo at 1 mg: 1 mg/ear × 2 topical
# How it was run: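 Test compounds in acetone:ethanol 1:1 were applied topically to both ears 30 min before and 15 min after PMA challenge; dexamethasone positive control followed the same schedule. Ear thickness was measured by micrometer 6 h after PMA, and percent inhibition was calculated from ear-thickness increase versus vehicle controls.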
# [4] = test system: BALB/c male mice; experiment: Oxazolone Induced Mouse Ear Edema Model; format: in vivo
# Method: 2. In Vivo Anti-Inflammation Activity in Oxazolone Induced Mouse Ear Edema Model
# Groups of 5 BALB/c male mice weighing 23±2 g were used. The preshaved abdomens of test animals were sensitized by application of 100 μl, of 1.5% oxazolone solution dissolved in acetone. Seven days after the initial sensitization, test substances, as well as vehicle (acetone:ethanol/1:1, 20 μL/ear) were each administered topically to the anterior and posterior surfaces of the right ear 30 minutes before, and 15 minutes after, challenge by a second application of oxazolone (1% in acetone, […]) via topical route. As a positive control, indomethacin (0.3 mg/ear×2) was administered topically using the same treatment regime as for the test compounds. Twenty-four hours after the second application of oxazolone, the ear thickness of each mouse was measured with a Dyer model micrometer gauge. A 30 percent or more inhibition in ear swelling relative to the vehicle control was considered significant and indicated possible anti-inflammatory activity.
# [5] = target: hERG-channel (Homo sapiens, UniProt Q12809); experiment: hERG-channel block; format: biochemical; settings: in vitro screening
# [6] = test system: TNF-α secretion from peripheral blood mononuclear cells (PBMCs); experiment: TNF-α secretion from PBMCs stimulated by LPS; format: cell-based, human; settings: PBMC
# Excerpt: (§1) Compounds were screened by a biochemical assay against PDE4 enzyme and cell-based cytokine release assays using PBMCs stimulated by LPS or phytohemagglutinin (PHA).
# [7] = test system: IL-2 secretion from PBMCs; experiment: IL-2 secretion from PBMCs stimulated with PHA; format: cell-based, human; settings: PBMC
# Excerpt: as §1
# [8] = test system: IFN-γ secretion from PBMCs; experiment: IFN-γ secretion from PBMCs stimulated with PHA; format: cell-based, human; settings: PBMC
# Excerpt: as §1
# [9] = test system: T3, phosphodiesterase 4 (PDE4) enzyme derived from human U937 cells; experiment: PDE4 enzyme activity (enzyme derived from human U937 cells); format: biochemical; settings: biochemical assay, PDE4 enzyme derived from human U937 cells; read-out: PDE4 IC50
# T3 construct: PDE4 IC50; other: biochemical assay, PDE4 enzyme derived from human U937 cells; other: PDE4 in human U937 cells
# Excerpt: The structure-activity relationships of novel boron-containing anti-inflammatory agents was investigated.
# as §1
# [10] = test system: PMA induced ear edema; experiment: PMA induced ear edema (acute skin irritation model); format: in vivo; settings: for inhibition of PMA induced ear edema: acetone/ethanol vehicle, 5% C27, 15% dexamethasone, p<0.01
# [11] = test system: oxazolone induced ear swelling; experiment: Oxazolone induced ear swelling (allergic contact dermatitis model); format: in vivo; settings: topical
# [12] = test system: p450 enzyme; experiment: p450 enzyme inhibition screen; format: in vitro ADME; settings: in vitro screening
# [13] = Pharmacokinetic analysis in the rat; format: in vivo
# [14] = Dermal application on the Göttingen minipig (plasma level, dermal irritation); format: in vivo; settings: Göttingen, minipig, plasma, topical, 5 % ointment or cream over 15% body surface area; dermal 5% C27 ointment or cream over 15% body surface area; LLOQ=0.01 μg/ml; read-out: plasma levels of the compound
# [15] = test system: Göttingen minipig; experiment: as above; format: in vivo; settings: 5% C27 ointment or cream, after 24 hours of exposure
# [16] = test system: L929; experiment: Cytotoxicity against L929 cell line; format: cell-based
# [17] = test system: HepG2; experiment: Cytotoxicity against HepG2 cell line; format: cell-based
# [18] = in vivo; settings: shrew
# [19] = test system: IL-1β production by human PBMCs; experiment: IL-1β production by LPS- or PHA-stimulated PBMCs; format: cell-based; settings: PBMC; LPS- and PHA-induced cytokine production by human PBMCs; read-out: IC50 IL-1β (pro-inflammatory cytokines)
# [20] = test system: IL-5 production by human PBMCs; experiment: IL-5 production by LPS- or PHA-stimulated PBMCs; format: cell-based; settings: PBMC; LPS- and PHA-induced cytokine production by human PBMCs; read-out: IC50 IL-5 (Th2 cytokines)
# [21] = test system: IL-10 production by human PBMCs; experiment: IL-10 production by LPS- or PHA-stimulated PBMCs; format: cell-based; settings: PBMC; LPS- and PHA-induced cytokine production by human PBMCs; read-out: IC50 IL-10 (Th2 cytokines)
# [22] = test system: T4, PDE3 Cat; experiment: PDE3 inhibition; format: biochemical; settings: standard: Cilostazol
# T4 construct: Recombinant human PDE enzymes were expressed in a baculoviral system.; PDE isoforms tested include
# [23] = test system: TNF-α; experiment: Cytokine assay, TNF-α release from PBMC; format: cell-based; settings: Homo sapiens, PBMC, 24 h, 1 μg/mL LPS, supernatant at 24 hours
# How it was run: (§2)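 Cryopreserved human PBMC were thawed and resuspended in RPMI 1640 with 10% FBS. Test compounds, diluted from 10 mM DMSO stocks, were applied in triplicate at 10, 1, 0.1 and 0.01 μM, and cytokine release was measured.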
# [24] = test system: IL-2; experiment: Cytokine assay, IL-2 release from PBMC; format: cell-based; settings: human PBMC, 20 ug/mL PHA, supernatant at 24 hours
# How it was run: as §2
# [25] = test system: IFN-γ; experiment: Cytokine assay, IFN-γ release from PBMC; format: cell-based; settings: human PBMC, 20 ug/mL PHA, supernatant at 24 hours
# How it was run: as §2
# [26] = test system: T5, PDE4 partially purified from human U-937 myeloid leukemia cells; experiment: PDE4 Assay (enzyme from U-937 cells, [3H]cAMP); format: biochemical; settings: PDE4 from U-937 cells, Tris buffer pH 7.5, 20 minutes at 25° C.
# T5 construct: PDE4 partially purified from human U-937 myeloid leukemia cells was used
# [27] = test system: IL-5; experiment: Cytokine assay, IL-5 release from PBMC; format: cell-based; settings: human PBMC, 20 ug/mL PHA, supernatant at 48 hours
# How it was run: as §2
# [28] = test system: IL-10; experiment: Cytokine assay, IL-10 release from PBMC; format: cell-based; settings: human PBMC, 20 ug/mL PHA, supernatant at 48 hours
# How it was run: as §2
# [29] = vehicle not given, ear swelling 6 hours after PMA
# [30] = LPS- and PHA-induced cytokine production by human PBMCs, read-out: IC50 TNFα (pro-inflammatory cytokines)
# [31] = LPS- and PHA-induced cytokine production by human PBMCs, read-out: IC50 IL-2 (Th1 cytokines)
# [32] = LPS- and PHA-induced cytokine production by human PBMCs, read-out: IC50 IFNg (Th1 cytokines)
# T1 sequence (P54750 whole entry): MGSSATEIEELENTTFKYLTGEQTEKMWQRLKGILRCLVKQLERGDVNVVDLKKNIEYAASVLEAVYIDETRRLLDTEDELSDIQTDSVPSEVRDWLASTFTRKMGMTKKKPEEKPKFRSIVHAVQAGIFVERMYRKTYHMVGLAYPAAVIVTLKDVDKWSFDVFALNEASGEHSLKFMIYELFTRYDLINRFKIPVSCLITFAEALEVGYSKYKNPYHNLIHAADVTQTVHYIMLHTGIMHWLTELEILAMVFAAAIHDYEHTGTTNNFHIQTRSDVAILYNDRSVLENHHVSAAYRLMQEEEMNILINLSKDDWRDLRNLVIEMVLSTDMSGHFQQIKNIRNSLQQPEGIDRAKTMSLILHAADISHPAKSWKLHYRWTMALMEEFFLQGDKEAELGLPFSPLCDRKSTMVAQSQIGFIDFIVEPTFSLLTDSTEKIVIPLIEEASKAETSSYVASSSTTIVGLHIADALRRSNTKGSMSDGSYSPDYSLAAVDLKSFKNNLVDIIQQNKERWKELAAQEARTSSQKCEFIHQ
# hERG-channel, sequence (Q12809 whole entry): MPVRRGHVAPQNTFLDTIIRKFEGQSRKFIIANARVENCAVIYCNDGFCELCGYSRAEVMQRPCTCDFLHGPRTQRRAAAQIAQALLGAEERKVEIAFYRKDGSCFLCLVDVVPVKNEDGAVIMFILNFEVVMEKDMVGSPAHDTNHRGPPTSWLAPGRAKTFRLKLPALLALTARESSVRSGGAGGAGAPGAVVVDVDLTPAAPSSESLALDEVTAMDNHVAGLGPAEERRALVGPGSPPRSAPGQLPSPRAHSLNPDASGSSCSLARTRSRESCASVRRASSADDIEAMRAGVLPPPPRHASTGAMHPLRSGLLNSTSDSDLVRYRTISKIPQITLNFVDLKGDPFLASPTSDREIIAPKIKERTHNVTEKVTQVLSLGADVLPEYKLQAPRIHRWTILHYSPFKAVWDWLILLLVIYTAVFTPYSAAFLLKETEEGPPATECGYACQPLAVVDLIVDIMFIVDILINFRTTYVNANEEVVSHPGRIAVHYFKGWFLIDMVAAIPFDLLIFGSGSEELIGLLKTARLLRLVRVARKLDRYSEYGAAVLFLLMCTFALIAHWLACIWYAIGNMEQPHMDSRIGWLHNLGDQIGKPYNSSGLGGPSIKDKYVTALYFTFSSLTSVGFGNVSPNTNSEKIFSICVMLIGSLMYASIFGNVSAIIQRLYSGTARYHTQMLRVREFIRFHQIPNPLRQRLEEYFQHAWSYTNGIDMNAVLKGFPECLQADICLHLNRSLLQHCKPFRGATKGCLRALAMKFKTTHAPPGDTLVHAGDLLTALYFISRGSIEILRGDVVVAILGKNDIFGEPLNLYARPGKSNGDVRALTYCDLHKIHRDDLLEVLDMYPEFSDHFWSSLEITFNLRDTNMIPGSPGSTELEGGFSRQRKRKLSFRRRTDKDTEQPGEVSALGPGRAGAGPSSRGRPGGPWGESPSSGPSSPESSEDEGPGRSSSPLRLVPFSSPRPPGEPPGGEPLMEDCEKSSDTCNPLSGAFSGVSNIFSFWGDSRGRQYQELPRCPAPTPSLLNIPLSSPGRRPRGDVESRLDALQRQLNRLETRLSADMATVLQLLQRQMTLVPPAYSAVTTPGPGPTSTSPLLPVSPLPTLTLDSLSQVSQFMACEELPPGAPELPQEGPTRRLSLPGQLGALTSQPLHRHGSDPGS
# T2 sequence (Q13946 whole entry): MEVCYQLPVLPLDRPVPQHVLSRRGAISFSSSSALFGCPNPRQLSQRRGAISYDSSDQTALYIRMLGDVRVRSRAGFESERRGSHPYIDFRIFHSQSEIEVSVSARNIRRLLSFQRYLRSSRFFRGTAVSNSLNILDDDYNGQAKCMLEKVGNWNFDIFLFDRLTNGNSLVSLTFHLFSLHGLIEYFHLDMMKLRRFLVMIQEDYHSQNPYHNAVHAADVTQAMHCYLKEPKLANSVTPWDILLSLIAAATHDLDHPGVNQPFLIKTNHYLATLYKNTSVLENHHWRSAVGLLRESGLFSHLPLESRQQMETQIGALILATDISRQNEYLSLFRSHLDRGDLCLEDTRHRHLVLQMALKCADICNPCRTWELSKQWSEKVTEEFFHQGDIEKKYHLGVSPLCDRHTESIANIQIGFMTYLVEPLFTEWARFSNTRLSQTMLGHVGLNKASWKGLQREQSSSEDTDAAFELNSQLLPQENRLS
smiles,measurement,setting,value
"COCc1nc2c([nH]1)c(=O)n(C)c(=O)n2CC(C)C [8-methoxymethyl-IBMX, reference compound]",IC50,[1],1000 to 10000 nM
"Cc1ccc([N+](=O)[O-])cc1S(=O)(=O)N(C)C [BRL-50481, reference compound]",IC50,[2],1000 to 10000 nM
"N#Cc1ccc(Oc2ccc3c(c2)COB3O)cc1C#N [C27, 5-(3,4-Dicyanophenoxy)-1,3-dihydro-1-hydroxy-2,1-benzoxaborole]",inhibition in vivo at 1 mg,[3]; [29],60 to 90%
same,inhibition in vivo at 3 mg,"[3]; 3 mg/ear × 2 topical, vehicle not given, ear swelling 6 hours after PMA",60 to 90%
same,inhibition in vivo at 3 mg,"[4]; topical, 24 h",40 to 60%
same,hERG inhibition,[5],no significant
same,IC50,"[6]; Homo sapiens, PBMCs stimulated by LPS, read-out: TNF-α secretion IC50",160 nM
same,IC50,"[7]; Homo sapiens, PBMCs stimulated with PHA, read-out: IL-2 secretion IC50",180 nM
same,IC50,"[8]; Homo sapiens, PBMCs stimulated with PHA, read-out: IFN-γ secretion IC50",220 nM
same,IC50,[9],60 nM
same,inhibition of PMA induced ear edema,[10],82%
same,lowest active concentration in PMA ear edema model,[10]; ointment vehicle,0.01%
same,inhibition of oxazolone induced ear swelling,[11],significantly inhibits
same,p450 enzyme inhibition,[12],no significant
same,mean plasma residence time,[13]; intravenous dosing at 20 mg/kg,0.64 h
same,bioavailability,"[13]; plasma, oral dosing at 100 mg/kg",7%
same,concentration at 24 h,[14],< 10 ng/mL
same,dermal irritation,[15],no dermal irritation
same,cytotoxicity,[16],> 100 micro M
same,cytotoxicity,[17],> 100 micro M
same,Cmax,[18],12400 ng/mL
COc1ccc([C@]2(C#N)CC[C@@H](C(=O)O)CC2)cc1OC1CCCC1 [Cilomilast],IC50,[6]; [30],< 1000 nM
same,IC50,[19],> 30000 nM
same,IC50,[7]; [31],< 1000 nM
same,IC50,[8]; [32],< 1000 nM
same,IC50,[20],< 1000 nM
same,IC50,[21],1000 to 10000 nM
"O=C1CCc2cc(OCCCCc3nnnn3C3CCCCC3)ccc2N1 [Cilostazol, cilostazol, reference compound]",IC50,[22],1000 to 10000 nM
"COC(=O)c1ccc(Oc2ccc3c(c2)COB3O)nc1C(=O)OC [D44, 6-(1-Hydroxy-1,3-dihydro-benzo[c][1,2]oxaborol-5-yloxy)-pyridine-2,3-dicarboxylic acid dimethyl ester]",IC50,[23],< 1000 nM
same,IC50,[24],< 1000 nM
same,IC50,[25],< 1000 nM
same,IC50,[26],< 1000 nM
same,melting point,,67.5 to 69.2 °C
"CCOC(=O)c1nc(Oc2ccc3c(c2)COB3O)ccc1C#N [D45, 3-Cyano-6-(1-hydroxy-1,3-dihydro-benzo[c][1,2]oxaborol-5-yloxy)-pyridine-2-carboxylic acid ethyl ester]",IC50,[23],< 1000 nM
same,IC50,[24],< 1000 nM
same,IC50,[25],< 1000 nM
same,IC50,[26],< 1000 nM
same,melting point,,204 to 206 °C
"CCOC(=O)c1ccc(Oc2ccc3c(c2)COB3O)nc1 [D60, Ethyl 6-(1-hydroxy-1,3-dihydrobenzo[c][1,2]oxaborol-5-yloxy)nicotinate]",IC50,[23],< 1000 nM
same,IC50,[24],< 1000 nM
same,IC50,[25],< 1000 nM
same,IC50,[27],< 1000 nM
same,IC50,[28],< 1000 nM
same,IC50,[26],< 1000 nM
same,inhibition in vivo at 0.1 mg,"[3]; 0.1 mg/ear × 2 topical, Acetone:Ethanol/1:1, ear swelling 6 hours after PMA",< 30%
same,inhibition in vivo at 0.2 mg,"[3]; 0.2 mg/ear × 2 topical, Acetone:Ethanol/1:1, ear swelling 6 hours after PMA",< 30%
same,inhibition in vivo at 1 mg,"[3]; Acetone:Ethanol/1:1, ear swelling 6 hours after PMA",30 to 60%
same,inhibition in vivo at 0.1 mg,"[4]; 0.1 mg/ear × 2 topical, Acetone:Ethanol/1:1, ear thickness 24 hours after second oxazolone application",< 20%
same,inhibition in vivo at 0.2 mg,"[4]; 0.2 mg/ear × 2 topical, Acetone:Ethanol/1:1, ear thickness 24 hours after second oxazolone application",< 20%
same,inhibition in vivo at 1 mg,"[4]; 1 mg/ear × 2 topical, Acetone:Ethanol/1:1, ear thickness 24 hours after second oxazolone application",< 20%
same,melting point,,110 to 113 °C
"COc1ccc(C2CNC(=O)C2)cc1OC1CCCC1 (stereo not shown) [Rolipram, rolipram, reference compound]",IC50,[23],< 1000 nM
same,IC50,[24],< 1000 nM
same,IC50,[25],< 1000 nM
same,IC50,[27],< 1000 nM
same,IC50,[28],< 1000 nM
same,IC50,[6]; [30],< 1000 nM
same,IC50,[19],> 30000 nM
same,IC50,[7]; [31],< 1000 nM
same,IC50,[8]; [32],< 1000 nM
same,IC50,[20],< 1000 nM
same,IC50,[21],< 1000 nM
"C[C@@H]1C[C@H]2[C@@H]3CCC4=CC(=O)C=C[C@]4(C)[C@@]3(F)[C@@H](O)C[C@]2(C)[C@@]1(O)C(=O)CO [dexamethasone, reference compound]",inhibition in vivo at 1 mg,[3]; [29],60 to 90%
same,inhibition of PMA induced ear edema,[10],73%
